Source: publication PMC5130005, “Indolin-2-one compounds targeting thioredoxin reductase as potential anticancer drug leads” (Oncotarget, 2016)

Assays:
TrxR in MCF-7 cells = target: T1, TrxR in MCF-7 cells (Homo sapiens, UniProt Q16881); assay: cellular TrxR activity in MCF-7 cell lysates (insulin reduction assay); format: cell-based; details: for cellular TrxR activity, MCF-7 cells: 10 h treatment, 20, 30, 40 and 50 μM
T1 construct: Lysates of MCF-7 cells treated with indicated concentrations of selected SCA analogs for 10 h; endogenous in cells; host or cells: MCF-7
T1 sequence (Q16881 1-499 isoform Q16881-5): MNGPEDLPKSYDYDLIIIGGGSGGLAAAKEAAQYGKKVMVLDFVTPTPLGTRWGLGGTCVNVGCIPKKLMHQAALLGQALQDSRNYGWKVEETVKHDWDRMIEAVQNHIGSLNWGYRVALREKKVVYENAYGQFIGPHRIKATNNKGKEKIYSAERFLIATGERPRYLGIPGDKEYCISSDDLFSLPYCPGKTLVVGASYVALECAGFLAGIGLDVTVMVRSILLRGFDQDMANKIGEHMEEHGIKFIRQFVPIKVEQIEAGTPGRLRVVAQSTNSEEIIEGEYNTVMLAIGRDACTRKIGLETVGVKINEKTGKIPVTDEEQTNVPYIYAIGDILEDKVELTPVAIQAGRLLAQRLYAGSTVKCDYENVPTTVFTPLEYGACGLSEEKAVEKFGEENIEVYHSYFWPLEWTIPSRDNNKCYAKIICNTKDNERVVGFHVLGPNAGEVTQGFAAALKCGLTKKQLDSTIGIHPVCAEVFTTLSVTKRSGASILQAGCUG
Description: (§1) Cells were seeded onto 100 mm or 60 mm culture plates and upon reaching ~70% confluency, they were subjected to drug treatment for indicated durations. Pellets of compound-treated or DMSO control cells comprising both attached and floating cells were collected and lysed in lysis buffer (25 mM Tris-HCl pH 7.5, 100 mM NaCl, 2.5 mM EDTA, 2.5 mM EGTA, 20 mM NaF, 1 mM Na3VO4, 20 mM sodium β-glycerophosphate, 10 mM sodium pyrophosphate, 0.5% Triton X-100) with freshly added protease inhibitor cocktail (Roche Diagnostics). Prior to being used in Western blot analysis and/or cellular TrxR, GR, Trx and GPx activity determination, lysates were precleared by centrifugation and protein concentrations were determined using a modified Bradford assay (Bio-Rad Laboratories) as described in the manufacturer's manual. This procedure for collecting whole cell lysate was used for all experiments except for the Trx-redox state determination experiment. Equal amounts of protein (50 μg) in each lysate sample were separated by SDS-PAGE, followed by electroblotting onto nitrocellulose membranes. Electroblotted proteins on membranes were probed with a primary antibody and subsequently by a secondary antibody conjugated to HRP.
Freshly collected cell lysates were used for measurement of activity of cellular Trx and TrxR. To measure TrxR activity, in each well of a 96-well plate, 25 μg of cell lysate was incubated in a final volume of 50 μl containing 85 mM Hepes (pH 7.6), 0.3 mM insulin, 10 μM rhTrx1, 2.5 mM EDTA and 660 μM NADPH for 40 min at 37°C. Controls containing lysates and all reaction reagents except rhTrx1 for each lysate sample were also set up. 200 μl of 1 mM DTNB in 6 M guanidine-HCl, 200 mM Tris-HCl pH 8.0 solution was added to quench the reaction. The amount of free thiols generated from insulin reduction was determined by DTNB reduction at 412 nm using the VersaMax microplate reader. To measure Trx activity, procedures were carried out similar to those for determining cellular TrxR activity, except that the cell lysates were incubated for 20 min with 300 nM recombinant rat TrxR in place of rhTrx1. Controls containing lysates and all reaction reagents except recombinant rat TrxR for each lysate sample were also set up. For each sample, Trx or TrxR activity was calculated as the absorbance at 412 nm subtracted from that of the corresponding control and expressed as a percentage of the activity measured in DMSO-treated cells.

[1] = cell viability, MRC-5 normal lung fibroblasts; format: cell-based; details: MRC-5 human normal lung fibroblasts, read-out: LC50, MRC-5 cells
recombinant rat TrxR = target: T2, recombinant rat TrxR (Rattus norvegicus, UniProt O89049); assay: juglone reduction versus DTNB reduction by recombinant rat TrxR; format: biochemical; details: 15 min incubation, 15 nM TrxR, 250 μM NADPH, 1-100 μM
T2 construct: made in house
T2 sequence (O89049 1-499): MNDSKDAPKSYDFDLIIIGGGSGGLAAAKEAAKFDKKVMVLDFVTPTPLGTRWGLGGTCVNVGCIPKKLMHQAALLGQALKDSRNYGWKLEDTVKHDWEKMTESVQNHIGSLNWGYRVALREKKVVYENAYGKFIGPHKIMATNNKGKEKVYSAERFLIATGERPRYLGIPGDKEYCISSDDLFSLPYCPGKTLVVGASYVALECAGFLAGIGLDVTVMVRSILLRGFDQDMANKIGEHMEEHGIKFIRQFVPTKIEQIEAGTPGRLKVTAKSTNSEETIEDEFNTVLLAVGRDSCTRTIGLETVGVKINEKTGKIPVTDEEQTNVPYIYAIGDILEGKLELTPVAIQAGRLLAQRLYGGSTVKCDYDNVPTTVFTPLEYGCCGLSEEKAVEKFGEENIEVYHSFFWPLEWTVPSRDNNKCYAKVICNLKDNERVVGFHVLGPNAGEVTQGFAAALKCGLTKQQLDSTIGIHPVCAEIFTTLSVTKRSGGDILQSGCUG
Description: The assay, designed to determine the ability of mammalian TrxR to reduce juglone at the N-terminal active center, was performed as described previously. Briefly, 2 μl of diluted DMSO stocks of compounds 4 and 5 (final concentrations 1-100 μM) were incubated in 198 μl of 15 nM recombinant rat TrxR, 250 μM NADPH and 0.1 mg/ml BSA in TE buffer at room temperature in 96-well plates for 15 min. 100 mM stock solution of juglone in DMSO was prepared fresh for each experiment and diluted in TE buffer to a 300 μM working solution. The incubation was terminated by the addition of 100 μl of 300 μM juglone solution (final concentration 100 μM), and NADPH consumption was monitored at 340 nm for 5 min using the VersaMax microplate reader. The linear decrease in NADPH absorbance was used for calculating juglone reduction activity. The results were expressed as % of TrxR juglone reduction activity of drug-treated sample over that of DMSO-treated sample.
The experiments were performed at the same time with a corresponding DTNB reduction assay as described above with modifications so as to keep the experimental parameters and conditions similar to those in the juglone reduction assay. […] Following 15 min incubation with compound 4 or 5, 50 μl of 8.75 μM DTNB solution (final concentration 1.75 μM) was added to each well and DTNB reduction was measured at 412 nm for 2 min.

HCT 116 cells = assay: apoptosis induction by Western blot of cleaved caspase 3 and PARP; format: cell-based, human; details: 10 h
Description: as §1

Compound	cellular TrxR activity, MCF-7 cells (TrxR in MCF-7 cells)	CC50 at 72 h [1]	juglone reduction compared with DTNB reduction by inhibited TrxR (recombinant rat TrxR)	apoptosis induction (cleaved caspase 3 and PARP) (HCT 116 cells)	cellular TrxR activity at 40 and 50 μM, MCF-7 cells (TrxR in MCF-7 cells; 10 h treatment, 40 and 50 μM, p < 0.05 vs DMSO)
CCCCN1C(=O)/C(=C/C(C)=O)c2ccccc21 [Compound 4]	decrease in TrxR activity in a dose-dependent manner	25.5 ± 2.7 µM	juglone reduction was more preserved than DTNB reduction	Dose-dependent induction of apoptosis	–
CC(=O)C=C1C(=O)N(C)c2ccccc21 [Compound 1, 1-methyl-3(2-oxopropylidene)indolin-2-one]	did not cause apparent inhibition	–	–	–	–
CC(=O)/C=C1/C(=O)N(Cc2ccccc2)c2ccccc21 [Compound 5]	decrease in TrxR activity in a dose-dependent manner	22.7 ± 2.4 µM	juglone reduction was more preserved than DTNB reduction	Dose-dependent induction of apoptosis	significant reduction
CN1C(=O)/C(=C/C(=O)c2ccccc2)c2ccccc21 [Compound 6]	did not cause apparent inhibition	–	–	–	–
